Read-outs that look alike come from different tables or passages of the source.
Assays:
[1] = system: blood-brain barrier (BBB); assay: IA ethyl alcohol, NEO100 or mannitol mediated BBB disruption, extravasated EB dye in perfused mouse brain (Experiments 1-3); type: in vivo, mice; details: for EB dye / EB dye penetration level / Patchy, or punctate pattern of EB dye: perfused mouse brain
Experimental: The method of IA and IC injection is similar to the IV push in the clinic, which comprises essentially the steps of: • pushing the injection composition at a particular infusion flow rate immediately after the placement of the IA catheter into the internal carotid artery (ICA) or the insertion of the injection needle into the left ventricle via the ultrasound-guided intracardiac (IC) puncture at room temperature.
When performing the IA and IC injections, the infusion flow rate is about 5-7 μl/second (0.3-0.45 ml/min), the infusion volume is about […] of the body weight (at 1 μl/g, volume/weight ratio), and USP purified water or sodium chloride is used to reconstitute varied EA solutions at room temperature.
Intracardiac injection of NEO100 or EA can be carried out through the procedure of ultrasound-guided intracardiac (IC) injection. […] The mouse is anesthetized in an induction chamber using 2-3% isoflurane in 100% oxygen at a rate of 0.2-0.5 L/min. Fur over the thorax area is removed and the animal is placed in a stereotactic frame in supine position, securing the upper and lower limbs to avoid body movement. The ultrasound transducer is placed above the chest of the animal, and the injection syringe is anchored to a platform to avoid erratic needle movements. An electrocardiogram monitor is used to monitor heart function during the intracardiac injection.
EB dye is used as the non-BBB permeable substance.
Photographs of the perfused brain tissues of the experimental mice after treatment are taken.
Extravasated EB dye is used as the non-BBB permeable substance.

[2] = system: blood-brain barrier (BBB); assay: Comparison of intracardiac EA and NEO100 mediated BBB opening, EB dye (Comparative Experiment 19, Experiment 20); type: in vivo, mice
Experimental: Intracardiac injected various concentrations of EA (at 25%, 20%, 3%, 0.3%, and 0.1%, 0.03%, 0.01%) and NEO100 (at 25%, 20%, 3%, 0.3%, and 0.1%, 0.03%, 0.01%) are used on mice to test their effects on BBB disruption and evaluated by the observation of extravasated EB dye in the brain tissues. […] Photographs of the perfused brain tissues from the experimental mice treated with […] EA and NEO100 are taken for observation and comparison.
The same procedure as experiment 19 was performed with IA 0.3% NEO100 with 2% EB dye solution.

[3] = cited from earlier work
[4] = system: blood-brain barrier (BBB); details: IA NEO100, IA mannitol; stated for comparison, no test described; cited from earlier work
[5] = Comparison of the toxicity of IA NEO100 and IA EA (Experiment 21)
Experimental: The safety profile of IA 0.3% NEO100 vs. IA 0.3% EA are compared. […] There are 15 experimental mice in each testing group. The potential adverse effects are evaluated.

[6] = system: blood-brain barrier (BBB)
[7] = IA injection 0.3%, 15 mice per group
[8] = IA injection 0.3%, 15 mice per group, number of mice

For `C=C(C)[C@@H]1CC=C(CO)CC1` [NEO100, perillyl alcohol], the EB dye ([1]; IA agent at 0.1%) was “Observed”, the “EB dye penetration level” value ([1]; IA agent at 0.1%) was “Few Patchy” and the “Patchy, or punctate pattern of EB dye” value ([1]; IA agent at 0.1%) was “Observed”. For the same compound, the EB dye ([1]; IA agent at 0.3%) was “Observed”, the “EB dye penetration level” value ([1]; IA agent at 0.3%) was “Widely” and the “Patchy, or punctate pattern of EB dye” value ([1]; IA agent at 0.3%) was “Observed”. For the same compound, the EB dye ([1]; IA agent at 3%) was “Observed”, the “EB dye penetration level” value ([1]; IA agent at 3%) was “Widely” and the “Patchy, or punctate pattern of EB dye” value ([1]; IA agent at 3%) was “Observed”. For the same compound, the EB dye ([1]; IA agent at 5%) was “Observed”, the “EB dye penetration level” value ([1]; IA agent at 5%) was “Widely” and the “Patchy, or punctate pattern of EB dye” value ([1]; IA agent at 5%) was “Observed”. For the same compound, the “brain finding in sudden-death mouse (inferior view)” value ([2]; IA 0.3% NEO100 with 2% EB dye, mouse died right after treatment) was “bleeding and a blood clot”, the “pattern of breached BBB, coronal section” value ([2]; IA 25% NEO, mice) was “random, haphazard, sporadic, patchy, or punctate pattern” and the “dose response of BBB disruption” value ([2]; intracardiac 25%, 20%, 3%, 0.3%, 0.1%, 0.03%, 0.01%, mice) was “dose-dependent manner”. For the same compound, the solubility in water [3] was “water-insoluble”, the “interval window of the breached BBB” value [4] was 4 h and the Mortality [5, 7] was 53.33%. The “tested animals that experienced adverse effects” value [5, 7] was “almost all”, the “Immediate Sudden Death” value [5, 8] was 3 and the “Intermediate-lasting epilepsy post-injection leading to death” value [5, 8] was 2. For the same compound, the “Long-lasting epilepsy post-injection leading death” value [5, 8] was 3, the “Moderate-lasting epilepsy post-injection and survival to fully recovery” value [5, 8] was 3 and the “Transient, mild, or occasional epilepsy post-injection and survival to fully recovery” value [5, 8] was 4. The overall mortality rate ([5]; repeated comparative experiments of IA EA and IA NEO100) was “around 60%”.
In the case of `OC[C@@H](O)[C@@H](O)[C@H](O)[C@H](O)CO` [mannitol], the “EB dye penetration level” value ([1]; IA agent at 0.1%) is reported as “Not”, the “EB dye penetration level” value ([1]; IA agent at 0.3%) is reported as “Not” and the “EB dye penetration level” value ([1]; IA agent at 3%) is reported as “Not”. For the same compound, the “EB dye penetration level” value ([1]; IA agent at 5%) was “Not”, the brain damage ([1]; IA mannitol at 0.1%, 0.3%, 3%, and 5%, mice) was “Some brain damage is observed” and the “disrupted BBB after IC mannitol” value ([1]; IC application of varied volumes of high concentrations of mannitol, mice) was “No disrupted BBB is observed”. The “EB (induced BBB disruption)” value ([6]; group A: 1800 μl 25% mannitol infused in 30 seconds) was “observed”, the “EB (induced BBB disruption)” value ([6]; group C: 300 μl 25% mannitol at regular speed in 1 minute, warmed to 37° C.) was “not observed” and the “interval window of the breached BBB” value [4] was 6 to 7 h.

Reference: US12539281B2 (priority 2021, dated 2026)
